Laboratory results from patent publication US12522623B2, “Small molecule STAT protein degraders” (THE REGENTS OF THE UNIVERSITY OF MICHIGAN, priority 2020, dated 2026).

How the values were obtained:
Type in all cases: cell-based
STAT1 = molecular target: T1, STAT1 (Homo sapiens, UniProt P42224); assay: Fluorescent immunoblotting of STAT1 protein in MOLM-16 cells (estimated DC50); conditions: MOLM-16, 4 h
T1 construct: endogenous in cells; host or cells: MOLM-16 (acute leukemia cells)
T1 sequence (P42224 1-750): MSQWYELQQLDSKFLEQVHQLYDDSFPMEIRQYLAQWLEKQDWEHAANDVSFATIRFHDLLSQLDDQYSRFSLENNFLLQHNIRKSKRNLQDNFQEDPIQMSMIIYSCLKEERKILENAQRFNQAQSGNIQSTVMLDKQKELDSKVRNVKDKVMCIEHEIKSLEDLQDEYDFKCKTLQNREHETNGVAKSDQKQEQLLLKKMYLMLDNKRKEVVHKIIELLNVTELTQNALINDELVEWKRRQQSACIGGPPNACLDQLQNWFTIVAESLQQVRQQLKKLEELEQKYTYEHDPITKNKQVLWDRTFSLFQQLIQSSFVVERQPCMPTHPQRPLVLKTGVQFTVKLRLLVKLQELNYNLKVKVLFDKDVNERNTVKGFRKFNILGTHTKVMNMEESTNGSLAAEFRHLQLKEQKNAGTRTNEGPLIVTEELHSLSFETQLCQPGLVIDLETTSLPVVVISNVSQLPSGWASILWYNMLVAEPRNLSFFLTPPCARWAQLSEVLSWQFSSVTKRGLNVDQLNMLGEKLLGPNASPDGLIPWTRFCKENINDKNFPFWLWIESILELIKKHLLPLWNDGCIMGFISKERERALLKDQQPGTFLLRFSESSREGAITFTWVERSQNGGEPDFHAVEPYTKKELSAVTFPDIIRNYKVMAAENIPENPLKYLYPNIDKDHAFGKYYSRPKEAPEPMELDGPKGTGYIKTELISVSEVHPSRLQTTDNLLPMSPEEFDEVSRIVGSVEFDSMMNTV
Procedure: (§1) In vitro cultured cells or xenograft tumors were lysed 1×Cell Lysis Buffer (Cell Signaling Technology, #9803), resolved by SDS-PAGE NuPAGE gel (Thermo Fisher Scientific), and transferred to a PVDF membrane (Bio Rad). For chemiluminescence immunoblotting, membranes were blocked for 1 h using 5% Blotting-Grade Blocker (#1706404, Bio Rad) in 1×Tris-buffered saline with Tween 20 (TBST, Pierce). Antibodies used were: rabbit mAbs for STAT3 (Cell Signaling Technology, #4368, #12640) and p-STAT3 (Y705) (Cell Signaling Technology, #9245, #52075). HRP conjugated goat anti-rabbit IgG (H+L) (#A27036) secondary antibodies was from Thermo Fisher Scientific. GAPDH (Santa Cruz Technology, sc-47724HRP) and actin (Santa Cruz Technology, sc-8432HRP, sc-47778HRP) were loading controls. For fluorescent immunoblotting, membranes were blocked using Odyssey TBS Blocker Buffer (LI-COR). IRDye 680RD and 800CW Dye-labeled secondary antibodies (LI-COR) were used. The washed membranes were scanned using Odyssey CLx imager (LI-COR). The intensity of Western blot signaling was quantitated using the Odyssey software or Image Studio V5.2 (LI-COR).

STAT3 = molecular target: T2, STAT3 (Homo sapiens, UniProt P40763); assay: Fluorescent immunoblotting of STAT3 protein in MOLM-16 cells (estimated DC50); conditions: MOLM-16, 4 h
T2 construct: endogenous in cells; host or cells: MOLM-16 (acute leukemia cells)
T2 sequence (P40763 whole entry): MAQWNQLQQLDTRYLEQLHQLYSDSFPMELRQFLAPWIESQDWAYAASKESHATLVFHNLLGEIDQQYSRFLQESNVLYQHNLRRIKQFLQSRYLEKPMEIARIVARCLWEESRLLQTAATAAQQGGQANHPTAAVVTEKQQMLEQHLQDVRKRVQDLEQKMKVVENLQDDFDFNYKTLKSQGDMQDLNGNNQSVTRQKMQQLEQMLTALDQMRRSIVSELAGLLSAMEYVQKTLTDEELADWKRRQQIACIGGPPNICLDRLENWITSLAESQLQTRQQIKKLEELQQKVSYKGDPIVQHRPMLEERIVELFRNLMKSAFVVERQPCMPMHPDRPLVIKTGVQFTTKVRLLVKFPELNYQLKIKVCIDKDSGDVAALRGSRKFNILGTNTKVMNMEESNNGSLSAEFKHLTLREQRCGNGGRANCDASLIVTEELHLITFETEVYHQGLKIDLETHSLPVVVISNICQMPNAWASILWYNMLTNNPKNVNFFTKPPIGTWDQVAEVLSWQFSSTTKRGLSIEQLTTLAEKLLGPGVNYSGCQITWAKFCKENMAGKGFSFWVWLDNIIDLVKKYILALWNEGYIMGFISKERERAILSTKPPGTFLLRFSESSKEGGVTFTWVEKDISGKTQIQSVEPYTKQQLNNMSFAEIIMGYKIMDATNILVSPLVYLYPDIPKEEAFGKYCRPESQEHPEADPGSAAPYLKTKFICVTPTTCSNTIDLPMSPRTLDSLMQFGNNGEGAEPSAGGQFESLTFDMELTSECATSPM
Procedure: as §1

MOLM-16 cells = assay: Cell growth inhibition, 4-day proliferation assay (CellTiter-Glo); conditions: MOLM16, 96 h; MOLM-16, 4 days
Procedure: The effect of representative Compounds of the Disclosure on cell viability was determined in a 4-day proliferation assay. Cells were maintained in the appropriate culture medium at 37° C. and an atmosphere of 5% CO2. All the cell lines were used within three months of thawing fresh vials. Cells were seeded in 384-well white plates (Corning Costar) at a density of 2,000 cells/well in 25 μl of culture medium. Compounds were serially diluted in the appropriate medium, and 25 μl of the diluted compounds were added to the cells. After the addition of compounds, the cells were incubated at 37° C. in an atmosphere of 5% CO2 for 4 days. Cell viability was determined using the CellTiter-Glo® Luminescent Cell Viability Assay Kit (Promega, Madison, WI) according to the manufacturers' instructions. Essentially, 50 μl of CellTiter-Glo® Reagent was added to each well, and then the plates were incubated at room temperature for 20 minutes. The luminescent signal was measured using a Tecan multimode microplate reader (Tecan, Morrisville, NC). The readings were normalized to the DMSO-treated cells and the IC50 was calculated by nonlinear regression (four parameters sigmoid fitted with variable slope, least squares fit, and no constraint) analysis using the GraphPad Prism software.

Compound	DC50 (STAT1) [nM]	DC50 (STAT3) [nM]	IC50 (MOLM-16 cells) [nM]
COC(=O)N1CC[C@H]2CC[C@@H](C(=O)N[C@@H](CCCN)C(=O)N[C@@H](Cc3ccc(C(C)(C)C)cc3)C(=O)N3CCC(CCC#Cc4cccc5c4CN(C4CCC(=O)NC4=O)C5=O)CC3)N2C(=O)[C@@H](NC(=O)c2cc3cc(C(F)(F)P(=O)(O)O)ccc3s2)C1 (stereo partly drawn) [Cpd. No. 1, ((2-(((5S,8S,10aR)-8-(((2S)-5-amino-1-(((2S)-3-(4-(tert-butyl)phenyl)-1-(4-(4-(2-(2,6-dioxopiperidin-3-yl)-1-oxoisoindolin-4-yl)but-3-yn-1-yl)piperidin-1-yl)-1-oxopropan-2-yl)amino)-1-oxopentan-2-yl)carbamoyl)-3-(methoxycarbonyl)-6-oxodecahydropyrrolo[1,2-a][1,5]diazocin-5-yl)carbamoyl)benzo[b]thiophen-5-yl)difluoromethyl)phosphonic acid]	> 1000	1000	
NC(=O)CC[C@H](NC(=O)[C@@H]1CC[C@@H]2CCN(C(=O)CCCCCC#Cc3cccc4c3CN(C3CCC(=O)NC3=O)C4=O)C[C@H](NC(=O)c3cc4cc(C(F)(F)P(=O)(O)O)ccc4s3)C(=O)N21)c1ncc(-c2ccccc2)s1 (stereo partly drawn) [Cpd. No. 2, ((2-(((5S,8S,10aR)-8-(((S)-4-amino-4-oxo-1-(5-phenylthiazol-2-yl)butyl)carbamoyl)-3-(8-(2-(2,6-dioxopiperidin-3-yl)-1-oxoisoindolin-4-yl)oct-7-ynoyl)-6-oxodecahydropyrrolo[1,2-a][1,5]diazocin-5-yl)carbamoyl)benzo[b]thiophen-5-yl)difluoromethyl)phosphonic acid]	> 1000	100	49
NC(=O)CC[C@H](NC(=O)[C@@H]1CC[C@@H]2CCN(C(=O)CCCCCC#Cc3cccc4c3CN(C3CCC(=O)NC3=O)C4=O)C[C@H](NC(=O)c3cc4cc(C(F)(F)P(=O)(O)O)ccc4s3)C(=O)N21)c1nc(-c2ccc(F)c(Cl)c2)cs1 (stereo partly drawn) [Cpd. No. 14, ((2-(((5S,8S,10aR)-8-(((S)-4-amino-1-(4-(3-chloro-4-fluorophenyl)thiazol-2-yl)-4-oxobutyl)carbamoyl)-3-(8-(2-(2,6-dioxopiperidin-3-yl)-1-oxoisoindolin-4-yl)oct-7-ynoyl)-6-oxodecahydropyrrolo[1,2-a][1,5]diazocin-5-yl)carbamoyl)benzo[b]thiophen-5-yl)difluoromethyl)phosphonic acid]		50	37
NC(=O)CC[C@H](NC(=O)[C@@H]1CC[C@@H]2CCN(C(=O)CCCCCC#Cc3cccc4c3CN(C3CCC(=O)NC3=O)C4=O)C[C@H](NC(=O)c3cc4cc(C(F)(F)P(=O)(O)O)ccc4s3)C(=O)N21)c1ncc(-c2ccccc2F)s1 (stereo partly drawn) [Cpd. No. 16, ((2-(((5S,8S,10aR)-8-(((S)-4-amino-1-(5-(2-fluorophenyl)thiazol-2-yl)-4-oxobutyl)carbamoyl)-3-(8-(2-(2,6-dioxopiperidin-3-yl)-1-oxoisoindolin-4-yl)oct-7-ynoyl)-6-oxodecahydropyrrolo[1,2-a][1,5]diazocin-5-yl)carbamoyl)benzo[b]thiophen-5-yl)difluoromethyl)phosphonic acid]		50	68
CCN1CC[C@H]2CC[C@@H](C(=O)N[C@@H](CCS(C)(=O)=O)C(=O)N[C@@H](Cc3ccc(C(C)(C)C)cc3)C(=O)N3CCC(CCC#Cc4cccc5c4CN(C4CCC(=O)NC4=O)C5=O)CC3)N2C(=O)[C@@H](NC(=O)c2cc3cc(C(F)(F)P(=O)(O)O)ccc3s2)C1 (stereo partly drawn) [Cpd. No. 18, ((2-(((5S,8S,10aR)-8-(((2S)-1-(((2S)-3-(4-(tert-butyl)phenyl)-1-(4-(4-(2-(2,6-dioxopiperidin-3-yl)-1-oxoisoindolin-4-yl)but-3-yn-1-yl)piperidin-1-yl)-1-oxopropan-2-yl)amino)-4-(methylsulfonyl)-1-oxobutan-2-yl)carbamoyl)-3-ethyl-6-oxodecahydropyrrolo[1,2-a][1,5]diazocin-5-yl)carbamoyl)benzo[b]thiophen-5-yl)difluoromethyl)phosphonic acid]	> 1000	< 250	
CCN1CC[C@H]2CC[C@@H](C(=O)N[C@@H](CCn3ccnc3)C(=O)N[C@@H](Cc3ccc(C(C)(C)C)cc3)C(=O)N3CCC(CCC#Cc4cccc5c4CN(C4CCC(=O)NC4=O)C5=O)CC3)N2C(=O)[C@@H](NC(=O)c2cc3cc(C(F)(F)P(=O)(O)O)ccc3s2)C1 (stereo partly shown) [Cpd. No. 19]	> 1000	250	
CCN1CC[C@H]2CC[C@@H](C(=O)N[C@@H](CCS(N)(=O)=O)C(=O)N[C@@H](Cc3ccc(C(C)(C)C)cc3)C(=O)N3CCC(CCC#Cc4cccc5c4CN(C4CCC(=O)NC4=O)C5=O)CC3)N2C(=O)[C@@H](NC(=O)c2cc3cc(C(F)(F)P(=O)(O)O)ccc3s2)C1 (stereo partly drawn) [Cpd. No. 20, ((2-(((5S,8S,10aR)-8-(((2S)-1-(((2S)-3-(4-(tert-butyl)phenyl)-1-(4-(4-(2-(2,6-dioxopiperidin-3-yl)-1-oxoisoindolin-4-yl)but-3-yn-1-yl)piperidin-1-yl)-1-oxopropan-2-yl)amino)-1-oxo-4-sulfamoylbutan-2-yl)carbamoyl)-3-ethyl-6-oxodecahydropyrrolo[1,2-a][1,5]diazocin-5-yl)carbamoyl)benzo[b]thiophen-5-yl)difluoromethyl)phosphonic acid]	> 1000	< 250	
CCN1CC[C@H]2CC[C@@H](C(=O)N[C@@H](CCn3ccnc3[N+](=O)[O-])C(=O)N[C@@H](Cc3ccc(C(C)(C)C)cc3)C(=O)N3CCC(CCC#Cc4cccc5c4CN(C4CCC(=O)NC4=O)C5=O)CC3)N2C(=O)[C@@H](NC(=O)c2cc3cc(C(F)(F)P(=O)(O)O)ccc3s2)C1 (stereo partly drawn) [Cpd. No. 21, ((2-(((5S,8S,10aR)-8-(((2S)-1-(((2S)-3-(4-(tert-butyl)phenyl)-1-(4-(4-(2-(2,6-dioxopiperidin-3-yl)-1-oxoisoindolin-4-yl)but-3-yn-1-yl)piperidin-1-yl)-1-oxopropan-2-yl)amino)-4-(2-nitro-1H-imidazol-1-yl)-1-oxobutan-2-yl)carbamoyl)-3-ethyl-6-oxodecahydropyrrolo[1,2-a][1,5]diazocin-5-yl)carbamoyl)benzo[b]thiophen-5-yl)difluoromethyl)phosphonic acid]	> 1000	> 1000	
CCN1CC[C@H]2CC[C@@H](C(=O)N[C@@H](CCn3ccnc3N)C(=O)N[C@@H](Cc3ccc(C(C)(C)C)cc3)C(=O)N3CCC(CCC#Cc4cccc5c4CN(C4CCC(=O)NC4=O)C5=O)CC3)N2C(=O)[C@@H](NC(=O)c2cc3cc(C(F)(F)P(=O)(O)O)ccc3s2)C1 (stereo partly drawn) [Cpd. No. 22, ((2-(((5S,8S,10aR)-8-(((2S)-4-(2-amino-1H-imidazol-1-yl)-1-(((2S)-3-(4-(tert-butyl)phenyl)-1-(4-(4-(2-(2,6-dioxopiperidin-3-yl)-1-oxoisoindolin-4-yl)but-3-yn-1-yl)piperidin-1-yl)-1-oxopropan-2-yl)amino)-1-oxobutan-2-yl)carbamoyl)-3-ethyl-6-oxodecahydropyrrolo[1,2-a][1,5]diazocin-5-yl)carbamoyl)benzo[b]thiophen-5-yl)difluoromethyl)phosphonic acid]	> 1000	> 1000	
